Results published in patent US20230321025A1, “METHOD AND COMPOUND FOR THE TREATMENT AND ELIMINATION OF AN IMMUNODEFICIENCY CONDITION” (priority 2020, published 2023).
Values after ≈ are worked out from the molar mass of the structure shown. Values joined by “and” are separate entries in the source; they are usually repeats but may differ in a detail not shown here. Equal entries are not always repeated. Where two headings read alike, the source gives them in different places.

Columns and labels:
Assay type in all cases: cell-based
[1] = system: multi-drug resistant HIV-1 (MDR-27221); assay: Inhibitory activity against multi-drug resistant HIV-1 clinical isolate; details: MDR-27221 strain
From the text: Furthermore, a resistance conferring mutation has been identified for virtually all antiretroviral agents in clinical practice. A test virus parental stock originated from a genotypic antiretroviral resistance test (GART) study. Additionally, a clinical isolate was pre-confirmed for genetic and phenotypic variance prior to this test. […] Accordingly, the fact that 90I may be effective against MDR viruses with multiple modes of action, it can replace the need for combination HIV drug therapy. This finding may be highly significant because typical current single target-oriented designer antiretroviral drugs have seriously been challenged by resistant viruses. Due to natural selection, the HIV-1 virus may have developed several survival strategies that include mutation.

[2] = system: gamma interferon production; assay: Gamma interferon production in spleenocyte of mice; details: versus positive control PMA-Ionomycin combination
From the text: Referring again to FIG. 14, activated CD8+ cells are reported to produce high levels of gamma interferon, which may be involved in the anti-HIV-1 immune responses, contributing to both control of viral spread and concomitant lymphoid follicular lyses. […] This finding may have a far-reaching implication and relevant in the restoration of immune system competence.

[3] = system: peripheral blood mononuclear cells (PBMC); assay: Drug-induced cytotoxicity in PBMC (MTS); details: for Toxicity testing, mean optical density: human, 7 days
Protocol: (§1) Drug efficacy was determined by the production of supernatant HIV-1 p24. Drug-induced cytotoxicity was determined by the metabolic reduction of tetrazolium salts (MTS; Promega).
(§2) The antiviral drug or agent of the invention, H2K-1001 (90i), was solubilized. PBMCs, stimulated with PHA (phytohemagglutinin) for three days were employed throughout. Virus stocks (U.S. Clinical isolates) grown in PBMCs only, that past the necessary quality controls (i.e., replicate to high titer in PBMCs and meet the requirements as to genotype and phenotype) were rapidly thawed and maintained on ice until required for infection.
(§3) Virus and cell controls were included on each test plate. Virus was added after cells and drugs were mixed. Cell, drug and virus containing cultures were incubated for seven (7) days with an interim feeding at day three or four.
(§4) Supernatants were sampled at seven days for p24 determination by antigen capture ELISA. Cytotoxicity was measured by the metabolic reduction of the tetrazolium salt according to the manufacturer’s (Promega) recommendations.
(§5) The drug analysis reports from these studies are provided below in Tables 7-10. Efficacy (EC50) and viability (IC50) determinations were made using Cho and Cho Median Effect Equation, as noted above. Efficacy is expressed as the 50% effective concentration (EC50) and drug induced toxicity as the 50% inhibitory concentration (IC50).

[4] = system: HIV-1 (P2); assay: Antiviral drug assay in PBMC (supernatant p24); details: for p24 testing data, single readings: listed as H2K-1001 (900); for EC50: Human immunodeficiency virus 1, PBMC
Protocol: as §1, §2, §3, §4, §5

O=C(OCCOCCOC(=O)c1ccccc1)c1ccccc1 [90I, diethylene glycol dibenzoate]
EC50 ([1]; Human immunodeficiency virus 1): 3 µg/mL
TI [1]: > 333
amount of gamma interferon produced [2]: equivalent to that of the positive control
Toxicity % CC ([3]; 0.01 ug/ml): 94 % CC
Toxicity % CC ([3]; 0.03 ug/ml): 103 % CC
Toxicity % CC ([3]; 0.10 ug/ml): 91 % CC
Toxicity % CC ([3]; 0.33 ug/ml): 94 % CC
Toxicity % CC ([3]; 1 ug/ml): 97 % CC
Toxicity % CC ([3]; 3 ug/ml (3.2 in Table 11)): 94 % CC
Toxicity % CC ([3]; 10 ug/ml): 100 % CC
Toxicity % CC ([3]; 32 ug/ml): 104 % CC
Toxicity % CC ([3]; 100 ug/ml): 111 % CC
IC50 ([3]; PBMC, read-out: IC50 (drug induced toxicity)): > 100 µg/mL
IC50 (drug induced toxicity) ([3]; PBMC, unit not given): greater than 100
Toxicity testing, mean optical density ([3]; 0.01 ug/ml): 1.3114
Toxicity testing, mean optical density ([3]; 0.03 ug/ml): 1.4316
Toxicity testing, mean optical density ([3]; 0.1 ug/ml): 1.2654
Toxicity testing, mean optical density ([3]; 0.33 ug/ml): 1.2992
Toxicity testing, mean optical density ([3]; 1 ug/ml): 1.3474
Toxicity testing, mean optical density ([3]; 3 ug/ml): 1.3102
Toxicity testing, mean optical density ([3]; 10 ug/ml): 1.3987
Toxicity testing, mean optical density ([3]; 32 ug/ml): 1.4463
Toxicity testing, mean optical density ([3]; 100 ug/ml): 1.5431
Efficacy % p24 Reduction ([4]; 0.01 ug/ml): 23%
p24 testing data, mean reading ([4]; 0.01 ug/ml): 2.2023
p24 testing data, single readings ([4]; 0.01 ug/ml): 2.100 and 2.2130 and 2.2937
Efficacy % p24 Reduction ([4]; 0.03 ug/ml): 25%
p24 testing data, mean reading ([4]; 0.03 ug/ml): 2.1373
p24 testing data, single readings ([4]; 0.03 ug/ml): 2.1210 and 1.9460 and 2.3450
Efficacy % p24 Reduction ([4]; 0.10 ug/ml): 36%
p24 testing data, mean reading ([4]; 0.10 ug/ml): 1.8337
p24 testing data, single readings ([4]; 0.10 ug/ml): 1.9461 and 1.8101 and 1.7450
Efficacy % p24 Reduction ([4]; 0.33 ug/ml): 36%
p24 testing data, mean reading ([4]; 0.33 ug/ml): 1.8344
p24 testing data, single readings ([4]; 0.33 ug/ml): 1.9451 and 1.7120 and 1.8460
Efficacy % p24 Reduction ([4]; 1 ug/ml): 53%
p24 testing data, mean reading ([4]; 1 ug/ml): 1.3316
p24 testing data, single readings ([4]; 1 ug/ml): 1.4266 and 1.4567 and 1.1116
p24 testing data, mean reading ([4]; 3 ug/ml): 0.3713
Efficacy % p24 Reduction ([4]; 3 ug/ml (3.2 in Table 11)): 87%
p24 testing data, single readings ([4]; 3 ug/ml): 0.4510 and 0.3219 and 0.3410
Efficacy % p24 Reduction ([4]; 10 ug/ml): 95%
p24 testing data, mean reading ([4]; 10 ug/ml): 0.1397
p24 testing data, single readings ([4]; 10 ug/ml): 0.1090 and 0.1220 and 0.1874
Efficacy % p24 Reduction ([4]; 32 ug/ml): 94%
p24 testing data, mean reading ([4]; 32 ug/ml): 0.1690
Efficacy % p24 Reduction ([4]; 100 ug/ml): 93%
p24 testing data, mean reading ([4]; 100 ug/ml): 0.1946
p24 testing data, single readings ([4]; 100 ug/ml): 0.1530 and 0.1820 and 0.2488
TI ([4]; HIV-1 P2 in PBMC): greater than 125
EC50 ([4]; HIV-1 P2 clinical isolate in PBMC, read-out: EC50): ~0.8 µg/mL (≈ 2.55 µM)
EC50 ([4]; PBMC, virus printed HIV-IRF, read-out: BC50 (the source's name)): 0.8 µg/mL (≈ 2.55 µM)
